Laboratory results taken from ChEMBL document CHEMBL6153147 (J Med Chem, 2025).

Key:
[1] = MRT (0 to t) in C57BL/6 mouse at 1 mg/kg, iv measured for 0.5 to 12 htr by LC-MS/MS analysis; assay type: ADME, organism-based; conditions: in vivo, time 0.5-12 hrs
[2] = biological target: Serine/threonine-protein kinase PLK3 (Homo sapiens, UniProt Q9H4B4); test: Inhibition of human PLK3 using ATF2 as substrate incubated for 40 mins in presence of [gamma-33P]ATP/Mg acetate by scintillation counting analysis
[3] = biological target: Serine/threonine-protein kinase PLK1 (Homo sapiens, UniProt P53350); test: Inhibition of human PLK1 using ATF2 as substrate incubated for 40 mins in presence of [gamma-33P]ATP/Mg acetate by scintillation counting analysis
[4] = biological target: Voltage-gated inwardly rectifying potassium channel KCNH2 (Homo sapiens, UniProt Q12809); test: Inhibition of hERG transfected in CHO cells; assay type: toxicity, cell-based
[5] = Clearance in C57BL/6 mouse at 1 mg/kg, iv measured for 0.5 to […] htr by LC-MS/MS analysis; assay type: ADME, organism-based; conditions: in vivo, time 0.5-12 hrs
[6] = Half life in C57BL/6 mouse at 10 mg/kg, po measured for 0.5 to 12 htr by LC-MS/MS analysis; assay type: ADME, organism-based; conditions: in vivo, time 0.5-12 hrs
[7] = test system: HEK-293T; test: Effect on mitochondrial membrane potential in HEK293T cells at 10 uM incubated for 24 hrs by MitoTracker Red probe based analysis; assay type: toxicity, cell-based; conditions: human
[8] = test system: NCI-H460; test: cells; conditions: Homo sapiens
[9] = test system: PC-9; test: cells; conditions: Homo sapiens
[10] = Selectivity ratio of IC50 for inhibition of human PLK2 using ATF2 as substrate to IC50 for inhibition of human PLK1 using ATF2 as substrate
[11] = Cytotoxicity against HEK293T cells assessed as inhibition of cell viability by CCK8 assay; assay type: toxicity, cell-based, HEK-293T; conditions: human
[12] = test system: HEK-293T; test: Cytotoxicity against HEK293T cells by CCK8 assay; assay type: toxicity, cell-based; conditions: human, dose 0.1-30 µM
[13] = test system: KG-1; test: cells; conditions: Homo sapiens
[14] = Volume of distribution at steady state in C57BL/6 mouse at 1 mg/kg, iv measured for 0.5 to 12 htr by LC-MS/MS analysis; assay type: ADME, organism-based; conditions: in vivo, time 0.5-12 hrs, read-out: Vdss
[15] = AUC (0 to infinity) in C57BL/6 mouse at 1 mg/kg, iv measured for 0.5 to 12 htr by LC-MS/MS analysis; assay type: ADME, organism-based; conditions: in vivo, time 0.5-12 hrs
[16] = test system: A549; test: cells; conditions: Homo sapiens
[17] = Cytotoxicity against HEK293T cells assessed as cell viability at 30 uM by CCK8 assay relative to control; assay type: toxicity, cell-based, HEK-293T; conditions: human, read-out: Activity
[18] = Cmax in C57BL/6 mouse at 10 mg/kg, po measured for 0.5 to […] htr by LC-MS/MS analysis; assay type: ADME, organism-based; conditions: in vivo, time 0.5-12 hrs
[19] = Cmax in C57BL/6 mouse at 1 mg/kg, iv measured for 0.5 to […] htr by LC-MS/MS analysis; assay type: ADME, organism-based; conditions: in vivo, time 0.5-12 hrs
[20] = AUC (0 to t) in C57BL/6 mouse at 1 mg/kg, iv measured for 0.5 to […] htr by LC-MS/MS analysis; assay type: ADME, organism-based; conditions: in vivo, time 0.5-12 hrs
[21] = Tmax in C57BL/6 mouse at 1 mg/kg, iv measured for 0.5 to 12 htr by LC-MS/MS analysis; assay type: ADME, organism-based; conditions: in vivo, time 0.5-12 hrs
[22] = test system: SW-620; test: cells; conditions: Homo sapiens
[23] = Tmax in C57BL/6 mouse at 10 mg/kg, po measured for 0.5 to 12 htr by LC-MS/MS analysis; assay type: ADME, organism-based; conditions: in vivo, time 0.5-12 hrs
[24] = C0 in C57BL/6 mouse at 1 mg/kg, iv measured for 0.5 to 12 htr by LC-MS/MS analysis; assay type: ADME, organism-based; conditions: in vivo, time 0.5-12 hrs
[25] = test system: CCRF-CEM; test: cells; conditions: Homo sapiens
[26] = MRT (0 to t) in C57BL/6 mouse at 10 mg/kg, po measured for 0.5 to 12 htr by LC-MS/MS analysis; assay type: ADME, organism-based; conditions: in vivo, time 0.5-12 hrs
[27] = Oral bioavailability in C57BL/6 mouse at 10 mg/kg measured for 0.5 to […] htr by LC-MS/MS analysis; assay type: ADME, organism-based; conditions: in vivo, time 0.5-12 hrs
[28] = AUC (0 to t) in C57BL/6 mouse at 10 mg/kg, po measured for 0.5 to […] htr by LC-MS/MS analysis; assay type: ADME, organism-based; conditions: in vivo, time 0.5-12 hrs
[29] = biological target: Serine/threonine-protein kinase PLK2 (Homo sapiens, UniProt Q9NYY3); test: Inhibition of human PLK2 using ATF2 as substrate incubated for 40 mins in presence of [gamma-33P]ATP/Mg acetate by scintillation counting analysis
[30] = Selectivity ratio of IC50 for inhibition of human PLK3 using ATF2 as substrate to IC50 for inhibition of human PLK1 using ATF2 as substrate
[31] = Solubility of compound in 0.01 M PBS at pH 7.4 assessed as fold increase equilibrated for 12 hrs by UV spectrophotometry relative to BI 2536; assay type: physicochemical; conditions: buffer, pH 7.4, 12 h
[32] = AUC (0 to infinity) in C57BL/6 mouse at 10 mg/kg, po measured for 0.5 to 12 htr by LC-MS/MS analysis; assay type: ADME, organism-based; conditions: in vivo, time 0.5-12 hrs
[33] = Effect on F-actin cytoskeleton in HEK293T cells at 10 uM incubated for 24 hrs by immunofluorescence based analysis; assay type: toxicity, cell-based; conditions: human, hek-293t
[34] = Effect on mitochondrial membrane integrity in HEK293T cells at 10 uM incubated for 24 hrs by JC-1 dye based analysis; assay type: toxicity, cell-based; conditions: human, hek-293t
[35] = test system: K562; test: cells; conditions: Homo sapiens
[36] = Half life in C57BL/6 mouse at 1 mg/kg, iv measured for 0.5 to 12 htr by LC-MS/MS analysis; assay type: ADME, organism-based; conditions: in vivo, time 0.5-12 hrs
[37] = test system: HL-60; test: cells; conditions: Homo sapiens
[38] = Metabolic stability in mouse liver microsomes assessed as intrinsic clearance preincubated for 5 mins followed by NADPH addition by LC-MS/MS analysis; assay type: ADME, Microsome; conditions: read-out: CLH
[39] = Metabolic stability in mouse liver microsomes assessed as half life preincubated for 5 mins followed by NADPH addition by LC-MS/MS analysis; assay type: ADME, Microsome
[40] = Metabolic stability in mouse liver microsomes assessed as intrinsic clearance in microsome measured per mg protein preincubated for 5 mins followed by NADPH addition by LC-MS/MS analysis; assay type: ADME; conditions: read-out: CLH
[41] = Metabolic stability in human liver microsomes assessed as intrinsic clearance in microsome measured per mg protein preincubated for 5 mins followed by NADPH addition by LC-MS/MS analysis; assay type: ADME; conditions: read-out: CLH
[42] = Metabolic stability in dog liver microsomes assessed as half life preincubated for 5 mins followed by NADPH addition by LC-MS/MS analysis; assay type: ADME, Canis lupus familiaris, Microsome
[43] = Metabolic stability in dog liver microsomes assessed as intrinsic clearance in microsome measured per mg protein preincubated for 5 mins followed by NADPH addition by LC-MS/MS analysis; assay type: ADME, Canis lupus familiaris; conditions: read-out: CLH
[44] = Metabolic stability in human liver microsomes assessed as half life preincubated for 5 mins followed by NADPH addition by LC-MS/MS analysis; assay type: ADME, Microsome
[45] = Metabolic stability in human liver microsomes assessed as intrinsic clearance preincubated for 5 mins followed by NADPH addition by LC-MS/MS analysis; assay type: ADME, Microsome; conditions: read-out: CLH
[46] = Metabolic stability in dog liver microsomes assessed as intrinsic clearance preincubated for 5 mins followed by NADPH addition by LC-MS/MS analysis; assay type: ADME, Canis lupus familiaris, Microsome; conditions: read-out: CLH

Chain of Serine/threonine-protein kinase PLK1 (P53350 whole entry): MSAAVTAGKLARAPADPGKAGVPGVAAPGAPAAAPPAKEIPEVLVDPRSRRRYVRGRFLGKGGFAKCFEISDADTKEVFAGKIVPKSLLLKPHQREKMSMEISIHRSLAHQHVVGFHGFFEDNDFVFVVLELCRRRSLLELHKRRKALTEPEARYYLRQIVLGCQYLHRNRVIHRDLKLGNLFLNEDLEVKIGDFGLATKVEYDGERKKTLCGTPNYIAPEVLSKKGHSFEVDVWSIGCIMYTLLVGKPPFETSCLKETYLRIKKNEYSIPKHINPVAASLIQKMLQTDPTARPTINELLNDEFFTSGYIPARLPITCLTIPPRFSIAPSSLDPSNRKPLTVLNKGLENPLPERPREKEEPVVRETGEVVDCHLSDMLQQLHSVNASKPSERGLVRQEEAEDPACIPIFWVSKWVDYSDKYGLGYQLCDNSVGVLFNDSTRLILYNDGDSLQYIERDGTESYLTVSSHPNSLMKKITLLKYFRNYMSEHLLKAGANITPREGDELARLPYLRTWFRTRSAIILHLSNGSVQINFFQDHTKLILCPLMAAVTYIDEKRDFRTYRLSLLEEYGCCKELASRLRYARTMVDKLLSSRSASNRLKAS
Chain of Serine/threonine-protein kinase PLK2 (Q9NYY3 whole entry): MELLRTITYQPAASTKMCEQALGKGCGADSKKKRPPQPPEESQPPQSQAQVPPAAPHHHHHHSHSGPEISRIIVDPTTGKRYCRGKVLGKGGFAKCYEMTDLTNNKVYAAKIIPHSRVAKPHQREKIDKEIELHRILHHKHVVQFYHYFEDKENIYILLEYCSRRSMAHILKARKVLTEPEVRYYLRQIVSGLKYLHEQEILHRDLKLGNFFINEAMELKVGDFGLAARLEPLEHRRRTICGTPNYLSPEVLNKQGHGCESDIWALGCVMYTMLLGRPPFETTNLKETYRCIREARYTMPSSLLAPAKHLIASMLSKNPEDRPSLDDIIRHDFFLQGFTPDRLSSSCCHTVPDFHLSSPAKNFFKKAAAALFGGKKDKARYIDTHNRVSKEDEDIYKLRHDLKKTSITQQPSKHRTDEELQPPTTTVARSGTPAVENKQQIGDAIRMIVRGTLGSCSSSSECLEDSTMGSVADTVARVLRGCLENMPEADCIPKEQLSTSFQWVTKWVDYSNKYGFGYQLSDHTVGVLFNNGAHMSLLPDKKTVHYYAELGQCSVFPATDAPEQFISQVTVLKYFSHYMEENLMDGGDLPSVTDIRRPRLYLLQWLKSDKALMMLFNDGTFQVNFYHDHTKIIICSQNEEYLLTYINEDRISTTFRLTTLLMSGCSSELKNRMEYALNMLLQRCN
Chain of Serine/threonine-protein kinase PLK3 (Q9H4B4 whole entry): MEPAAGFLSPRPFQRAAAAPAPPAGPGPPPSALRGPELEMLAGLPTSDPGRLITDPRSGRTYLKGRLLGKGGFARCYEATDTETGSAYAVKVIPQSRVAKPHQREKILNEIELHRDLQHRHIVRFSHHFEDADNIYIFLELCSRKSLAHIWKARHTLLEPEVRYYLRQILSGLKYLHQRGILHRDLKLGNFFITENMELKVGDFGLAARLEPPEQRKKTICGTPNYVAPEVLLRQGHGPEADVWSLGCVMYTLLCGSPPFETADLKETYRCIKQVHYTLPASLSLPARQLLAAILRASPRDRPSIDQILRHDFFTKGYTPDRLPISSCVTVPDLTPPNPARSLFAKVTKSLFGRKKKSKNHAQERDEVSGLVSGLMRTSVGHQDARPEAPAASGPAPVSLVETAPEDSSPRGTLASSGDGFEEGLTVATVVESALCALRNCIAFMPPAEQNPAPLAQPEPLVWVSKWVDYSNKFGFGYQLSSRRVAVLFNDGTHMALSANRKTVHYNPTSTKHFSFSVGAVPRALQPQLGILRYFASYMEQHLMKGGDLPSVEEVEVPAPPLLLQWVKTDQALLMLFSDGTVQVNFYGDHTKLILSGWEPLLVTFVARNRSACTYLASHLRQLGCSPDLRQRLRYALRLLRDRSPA
Chain of Voltage-gated inwardly rectifying potassium channel KCNH2 (Q12809 whole entry): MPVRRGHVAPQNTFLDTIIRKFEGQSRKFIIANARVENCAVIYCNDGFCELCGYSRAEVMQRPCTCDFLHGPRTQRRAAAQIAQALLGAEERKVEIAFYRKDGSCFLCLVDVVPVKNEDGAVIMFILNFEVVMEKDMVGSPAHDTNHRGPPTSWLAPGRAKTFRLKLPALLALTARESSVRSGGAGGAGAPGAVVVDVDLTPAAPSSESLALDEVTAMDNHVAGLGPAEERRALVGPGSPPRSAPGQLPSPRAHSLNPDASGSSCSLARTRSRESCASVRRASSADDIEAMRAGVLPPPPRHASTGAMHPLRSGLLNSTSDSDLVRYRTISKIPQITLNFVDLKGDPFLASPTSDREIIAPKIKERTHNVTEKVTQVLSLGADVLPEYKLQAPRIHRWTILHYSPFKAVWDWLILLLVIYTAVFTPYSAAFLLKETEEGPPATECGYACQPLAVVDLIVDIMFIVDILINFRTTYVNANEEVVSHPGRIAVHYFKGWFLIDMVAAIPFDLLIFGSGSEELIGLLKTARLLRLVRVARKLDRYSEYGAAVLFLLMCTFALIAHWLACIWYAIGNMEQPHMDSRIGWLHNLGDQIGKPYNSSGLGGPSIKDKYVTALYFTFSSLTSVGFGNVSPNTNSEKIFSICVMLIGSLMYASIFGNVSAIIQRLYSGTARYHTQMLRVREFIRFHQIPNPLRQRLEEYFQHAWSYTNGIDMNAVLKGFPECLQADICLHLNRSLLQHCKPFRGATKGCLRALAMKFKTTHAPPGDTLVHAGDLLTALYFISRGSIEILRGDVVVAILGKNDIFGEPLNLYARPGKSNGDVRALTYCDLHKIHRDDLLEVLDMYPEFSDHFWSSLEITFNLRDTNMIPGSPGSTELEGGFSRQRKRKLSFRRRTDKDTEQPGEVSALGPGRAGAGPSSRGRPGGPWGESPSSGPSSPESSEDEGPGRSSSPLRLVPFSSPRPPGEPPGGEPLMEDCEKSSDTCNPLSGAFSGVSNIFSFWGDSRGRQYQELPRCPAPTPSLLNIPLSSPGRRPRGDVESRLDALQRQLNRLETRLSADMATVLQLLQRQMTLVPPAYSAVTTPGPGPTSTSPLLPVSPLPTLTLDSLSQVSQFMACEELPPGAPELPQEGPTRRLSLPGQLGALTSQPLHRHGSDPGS

| MRT last [1] | IC50 [2] | IC50 [3] | clearance [5] | half-life [6] | IC50 [8] | IC50 [9] | IC50 [13] | Vd [14] | AUC(0-inf) [15] | IC50 [16] | Cmax [18] | Cmax [19] | AUC(0-t) [20] | Tmax [21] | IC50 [22] | Tmax [23] | C0 [24] | IC50 [25] | Compound | ratio [10] | further results |
| --- | --- | --- | --- | --- | --- | --- | --- | --- | --- | --- | --- | --- | --- | --- | --- | --- | --- | --- | --- | --- | --- |
| 34.8 min | 3230 nM | 20 nM | 73 mL/min/kg | 66 min | 32 nM | 164 nM | > 10000 nM | 2.5 L/kg | 228 ng·h/mL | 154 nM | 201 ng/mL | 471 ng/mL | 226 ng·h/mL | 4.98 min | 217 nM | 25.2 min | 753 ng/mL | 40 nM | CC[C@@H]1C(=O)N(C)c2cnc(Nc3cc(N4CCN(C)CC4)ccc3OCCCO)nc2N1C1CCCC1 | 247 | IC50 [4]: 13300 nM; Activity [7]: Non-toxic; IC50 [11]: 38200 nM; Activity [12]: Dose-dependent-effect; viability at 30 µM [17]: 16.5%; MRT last [26]: 108 min; bioavailability [27]: 20%; AUC(0-t) [28]: 449 ng·h/mL; IC50 [29]: 4940 nM; ratio [30]: 161; fold change (FC) [31]: > 2; AUC(0-inf) [32]: 452 ng·h/mL; Activity [33]: Non-toxic; Activity [34]: Non-toxic; IC50 [35]: 0.67 nM; half-life [36]: 40.8 min; IC50 [37]: 53 nM |
|  | 2000 nM | 11 nM |  |  | 27 nM | 65 nM | 4810 nM |  |  | 103 nM |  |  |  |  | 18 nM |  |  | 90 nM | CC[C@@H]1C(=O)N(C)c2cnc(Nc3cc(N4CCN(C)CC4)cc(F)c3OCCCO)nc2N1C1CCCC1 | 700 | IC50 [29]: 7900 nM; ratio [30]: 178; IC50 [35]: 1780 nM; IC50 [37]: 31 nM |
| 42 min |  |  | 143 mL/min/kg | 84 min |  |  |  | 6 L/kg | 117 ng·h/mL |  | 40 ng/mL | 175 ng/mL | 116 ng·h/mL | 4.98 min |  | 25.2 min | 227 ng/mL |  | CC[C@@H]1C(=O)N(C)c2cnc(Nc3ccc(C(=O)NC4CCN(C)CC4)cc3OC)nc2N1C1CCCC1 [BI-2536] |  | CLint scaled [38]: 136 mL/min/kg; half-life [39]: 40.2 min; microsomal CLint [40]: 34.5 µL/min/mg; microsomal CLint [41]: 24.1 µL/min/mg; half-life [42]: 27.4 min; MRT last [26]: 126 min; bioavailability [27]: 8.2%; AUC(0-t) [28]: 89 ng·h/mL; microsomal CLint [43]: 50.6 µL/min/mg; AUC(0-inf) [32]: 96 ng·h/mL; half-life [44]: 57.4 min; CLint scaled [45]: 30.3 mL/min/kg; CLint scaled [46]: 126 mL/min/kg; half-life [36]: 41.4 min |
